# Marks after values point to notes of the source that are not given here.
# Experiments:
# [1] = ABTS•+ radical cation decolorization assay; conditions: 16 min reaction
# Method: The experiments were carried out using a slightly modified 2,2’-azinobis (3-ethylbenzothiazoline-6-sulfonic acid) diammonium salt (ABTS, Sigma-Aldrich Chemie, Steinheim, Germany) decolorization assay. Stock solution of ABTS (2 mM) was prepared by dissolving in 50 mL of phosphate buffered saline (PBS) obtained by dissolving 0.27 g of KH2PO4 (Jansen Chimica, Beerse, Belgium), 1.42 g of Na2HPO4, 8.18 g of NaCl, and 0.15 g of KCl (Merck, Darmstadt, Germany) in 1 L of distilled water. The pH was adjusted to 7.4 using NaOH solution. The ABTS^•+ was produced by reacting 50 mL of ABTS stock solution with 200 μL of K2S2O8 solution. The ABTS^•+ solution was diluted with PBS before measurements to obtain the absorbance of 0.800 ± 0.030 at 734 nm. 5,8-DHC was dissolved in PBS at the concentrations of 0.0025, 0.005, 0.01, 0.025 and 0.05% before the reaction. A 3 mL aliquot of ABTS^•+ solution was mixed with 30 μL of 5,8-DHC solution in the 1 cm path length quartz cuvette. The absorbance was read at ambient temperature after 16 min. PBS solution was used as a blank. All determinations were carried out in triplicate. Radical scavenging capacity was expressed as in DPPH^• scavenging assay.
# [2] = Total phenolic compounds (TPC), Folin-Ciocalteu method
# Method: The content of TPC was determined by the Folin–Ciocalteu method. Calibration curve was prepared by using 1 mL reference gallic acid solutions in ethanol (0.025, 0.075, 0.100, 0.175 and 0.350 mg/mL), which were mixed with 5 mL of a standard Folin-Ciocalteu reagent and diluted with distilled water (1:10) and 4 mL of 7.5% sodium carbonate solution in distilled water. The absorption was read after 30 min at 765 nm. The concentration of TPC was expressed in mg of gallic acid equivalents (GAE) per 1 g. The TPC was calculated by the following formula: C = c × V/m (2) where C is the concentration of gallic acid, determined form the calibration curve (mg/mL); V is the volume of 5,8-DHC solution (100 mL); m is the weight of 5,8-DHC (g).
# [3] = Rapeseed oil oxidation in Oxipress apparatus; conditions: for protection factor of rapeseed oil: 120 °C, oxygen 5 bars
# Method: The samples were prepared by mixing rapeseed oil with 0.025, 0.05 and 0.1% of DHC. Five g of oil were placed in a reactor tube and thermostated at 120 °C under oxygen atmosphere (5 bars) in Oxipress apparatus (Mikrolab, Aarhus). Pressure changes which occur due to the absorption of oxygen consumed for oil oxidation were recorded. The protection factor (PF) values of rapeseed oil in case of using 5,8-DHC were calculated by the following formula: PF = IPX/IPK(3) where IPX is induction period of sample with additive (h); IPK is induction period of sample without additive (h).
# human lymphocytes [4] = assay: Chromosome aberrations in human lymphocyte cultures in vitro; assay type: cell-based; conditions: for CA per 100 cells (±S.E.M.): 24 h treatment, pooled two donors
# Method: (§1) Blood samples were taken from two healthy female volunteers (donor A) and (donor B). Whole peripheral blood was grown in HEPES-buffered RPMI 1640 medium supplemented with 12% heat-inactivated newborn calf serum, 7.8 μg/mL phytohemagglutinin P, 50 μg/mL gentamycin, 10 μg/mL 5-bromo-2'-deoxyuridine. All reagents used for the cell culture were purchased from Sigma-Aldrich Chemical Co. (St. Louis, MO, USA). Cell cultures were incubated at 37 °C for 72 h. Treatment with test compounds was carried out 48 h after culture initiation and lasted for the period of 24 h. Dose range of 5,8-DHC (10 to 40 µg/mL) was based on pilot experiments (data not shown). As whole blood cultures display many properties common with the liver microsomal cytochrome P450 system, no external metabolising enzymes were added. 5,8-DHC was dissolved in ethanol and then diluted with RPMI 1640 medium to the desired concentration. Ethanol in a final concentration of 7.5µL/mL was used as a solvent control. […] Working solutions were made just before treatment. Two parallel cultures were used for each concentration of the compound tested. Two cultures were left untreated and served as a blank control. Methyl methanesulfonate (MMS) in a final concentration of 0.02 μL/mL was used as a positive control. The cultures were exposed to colchicine at a final concentration of 0.6 μg/mL for the last 3 h of incubation. The cells were harvested, hypotonically swollen in 0.075 M KCl and fixed in methanol: acetic acid (3:1). Air-dried slides were differentially stained by fluorescence plus Giemsa technique as has been described previously. Briefly, the slides were stained for 10 min. with 10 μg/mL of Hoechst 33258 dye (dissolved in 0.07 M Soerensen’s buffer, pH 6.8). Then the slides were rinsed, mounted with citrate buffer (pH 8.5), covered with cover slips and exposed to UV light (400 W mercury lamp at a distance of 15 cm) for 6–7 min. Slides were then rinsed and stained for 3–4 min. with 5% Giemsa. Cytogenetic analysis was performed on coded slides. No less than 100 first-mitotic division metaphases per culture were analysed for CAs, and no less than 50 second-division metaphases for SCEs.
# human lymphocytes [5] = assay: Sister chromatid exchanges and replication index in human lymphocyte cultures in vitro; assay type: cell-based
# Method: as §1
# Cell replicative kinetics were determined by means of a replicative index (RI = [M1 + 2M2 + 3M3]/N, where M1, M2, M3 are the numbers of cells that had undergone one, two or three cycles of replication, and N is a total number of cells scored). 300 cells were scored to determine RI
smiles,measurement,setting,value
"O=c1ccc2c(O)ccc(O)c2o1 [5,8-DHC, 5,8-Dihydroxycoumarin]",IC50 in ABTS•+ reaction,[1],0.028%
same,content of total phenols (TPC),[2],581.0 ± 0.0 mg gallic acid equivalents (GAE) in 1 g
same,rapeseed oil autooxidation induction period (IP),"[3]; 0.025 % 5,8-DHC",3.81 h
same,protection factor of rapeseed oil,"[3]; 0.025% 5,8-DHC",1.69
same,rapeseed oil autooxidation induction period (IP),"[3]; 0.050 % 5,8-DHC",5.46 h
same,protection factor of rapeseed oil,"[3]; 0.05% 5,8-DHC",2.43
same,rapeseed oil autooxidation induction period (IP),"[3]; 0.100 % 5,8-DHC",8.46 h
same,CA per 100 cells (±S.E.M.),human lymphocytes [4]; 10 µg/mL,1.5 ± 0.9 per 100 cells
same,CA per 100 cells (±S.E.M.),human lymphocytes [4]; 15 µg/mL,3.0 ± 1.2 per 100 cells
same,CA per 100 cells (±S.E.M.),human lymphocytes [4]; 20 µg/mL,3.5 ± 1.3 per 100 cells
same,CA per 100 cells (±S.E.M.),human lymphocytes [4]; 25 µg/mL,6.5 ± 1.7 per 100 cells
same,CA per 100 cells (±S.E.M.),human lymphocytes [4]; 30 µg/mL,7.0 ± 1.8 per 100 cells
same,CA per 100 cells (±S.E.M.),human lymphocytes [4]; 35 µg/mL,7.0 ± 1.8 per 100 cells
same,CA per 100 cells (±S.E.M.),human lymphocytes [4]; 40 µg/mL,9.5 ± 2.1 ^b per 100 cells
same,concentration giving statistically significant increase of CAs,human lymphocytes [4]; highest concentration only,40000 ng/mL
same,ratio of regression coefficients donor A / donor B,human lymphocytes [5],2.6 times
same,RI ± S.E.M,"human lymphocytes [5]; Donor A, 10 µg/mL",2.70 ± 0.04
same,SCE/ cell ± S.E.M.,"human lymphocytes [5]; Donor A, 10 µg/mL",10.2 ± 0.5 SCE/cell
same,RI ± S.E.M,"human lymphocytes [5]; Donor A, 15 µg/mL",2.74 ± 0.31
same,SCE/ cell ± S.E.M.,"human lymphocytes [5]; Donor A, 15 µg/mL",12.3 ± 0.6 ^b SCE/cell
same,RI ± S.E.M,"human lymphocytes [5]; Donor A, 20 µg/mL",2.65 ± 0.04 ^b
same,SCE/ cell ± S.E.M.,"human lymphocytes [5]; Donor A, 20 µg/mL",12.7 ± 0.7 ^b SCE/cell
same,RI ± S.E.M,"human lymphocytes [5]; Donor A, 25 µg/mL",2.66 ± 0.04 ^b
same,SCE/ cell ± S.E.M.,"human lymphocytes [5]; Donor A, 25 µg/mL",13.6 ± 0.6 ^b SCE/cell
same,RI ± S.E.M,"human lymphocytes [5]; Donor A, 30 µg/mL",2.55 ± 0.05 ^b
same,SCE/ cell ± S.E.M.,"human lymphocytes [5]; Donor A, 30 µg/mL",13.9 ± 0.6 ^b SCE/cell
same,RI ± S.E.M,"human lymphocytes [5]; Donor A, 35 µg/mL",2.51 ± 0.05 ^b
same,SCE/ cell ± S.E.M.,"human lymphocytes [5]; Donor A, 35 µg/mL",15.0 ± 0.8 ^b SCE/cell
same,RI ± S.E.M,"human lymphocytes [5]; Donor A, 40 µg/mL",2.62 ± 0.04 ^b
same,SCE/ cell ± S.E.M.,"human lymphocytes [5]; Donor A, 40 µg/mL",19.7 ± 1.5 ^b SCE/cell
same,RI ± S.E.M,"human lymphocytes [5]; Donor B, 10 µg/mL",2.22 ± 0.05 ^b
same,SCE/ cell ± S.E.M.,"human lymphocytes [5]; Donor B, 10 µg/mL",10.1 ± 0.5 SCE/cell
same,RI ± S.E.M,"human lymphocytes [5]; Donor B, 15 µg/mL",2.35 ± 0.05
same,SCE/ cell ± S.E.M.,"human lymphocytes [5]; Donor B, 15 µg/mL",10.6 ± 0.5 SCE/cell
same,RI ± S.E.M,"human lymphocytes [5]; Donor B, 20 µg/mL",2.49 ± 0.05
same,SCE/ cell ± S.E.M.,"human lymphocytes [5]; Donor B, 20 µg/mL",10.3 ± 0.4 SCE/cell
same,RI ± S.E.M,"human lymphocytes [5]; Donor B, 25 µg/mL",2.31 ± 0.05 ^b
same,SCE/ cell ± S.E.M.,"human lymphocytes [5]; Donor B, 25 µg/mL",9.9 ± 0.5 SCE/cell
same,RI ± S.E.M,"human lymphocytes [5]; Donor B, 30 µg/mL",2.31 ± 0.06 ^b
same,SCE/ cell ± S.E.M.,"human lymphocytes [5]; Donor B, 30 µg/mL",11.8 ± 0.5 ^b SCE/cell
same,RI ± S.E.M,"human lymphocytes [5]; Donor B, 35 µg/mL",2.17 ± 0.06 ^b
same,SCE/ cell ± S.E.M.,"human lymphocytes [5]; Donor B, 35 µg/mL",11.5 ± 0.6 ^b SCE/cell
same,RI ± S.E.M,"human lymphocytes [5]; Donor B, 40 µg/mL",2.07 ± 0.06 ^b
same,SCE/ cell ± S.E.M.,"human lymphocytes [5]; Donor B, 40 µg/mL",13.3 ± 0.6 ^b SCE/cell
same,dose giving statistically significant increase in the frequency of SCEs,human lymphocytes [5]; donor A,15 µg/mL
same,regression coefficient of SCE dose-response relationship,human lymphocytes [5]; donor A,1.15
same,dose giving statistically significant increase in the frequency of SCEs,human lymphocytes [5]; donor B,≥ 30 µg/mL
same,regression coefficient of SCE dose-response relationship,human lymphocytes [5]; donor B,0.44
same,concentration consistently inhibiting cell replicative kinetics,human lymphocytes [5]; lymphocytes of both donors,higher than 25 μg/mL
